Key:
[1] = Acid dissociation constant pKa of saturated aliphatic carboxylic acids; format: physicochemical; settings: for pKa1: first acid dissociation constant; for pKa2: second acid dissociation constant
Description: The acid dissociation constant pKa1 of the saturated aliphatic carboxylic acid is preferably 4.0 or more, more preferably 4.0 to 4.5, still more preferably 4.1 to 4.5. If the saturated aliphatic carboxylic acid is divalent or more polyvalent, the second acid dissociation constant pKa2 is preferably 5.0 or more. The acid dissociation constant pKa can be measured by, for example, titration, absorptiometry, or capillary electrophoresis.

[2] = Redispersibility after long-time storage (rate of change in absorbance of agitated ink after one year); format: physicochemical; settings: redispersing effect of the saturated aliphatic carboxylic acid in the ink
Experimental: Ink bags containing respective ink compositions were allowed to stand at room temperature (25° C.) with the rectangular face of the ink bag in a horizontal position for a year. […] Subsequently, the ink bag was turned upside down and was reciprocally moved 50 times in the same manner with the rectangular face of the ink gab in a horizontal position. After the ink composition in the ink bag was thus agitated, the ink composition was sampled from the upper side in the ink gab with the ink inlet facing up. Then, the absorbance of the sampled ink composition was measured with a spectrophotometer U-3300 (manufactured by Hitachi) and compared with the absorbance before the storage. […] As a larger amount of sediment settles, the density of the white pigment in the ink composition tends to be reduced, and accordingly the absorbance after storage is generally low.

| pKa1 [1] | pKa2 [1] | Redispersion [2] | pKa3 ([1]; third acid dissociation constant) | Compound |
| --- | --- | --- | --- | --- |
| 4 | 5.24 | Good |  | O=C(O)CCC(=O)O [Succinic acid] |
| 4.26 | 5.03 | Excellent |  | O=C(O)CCCCC(=O)O [Adipic acid] |
| 2.87 | 4.35 | Fair | 5.69 | O=C(O)CC(O)(CC(=O)O)C(=O)O [Citric acid] |
| 4.64 |  | Good |  | CCCCCCCCCCCCCCCC(=O)O [Palmitic acid] |

Source: patent US9499705B2, “Radically polymerizable photo-curable ink jet ink composition” (Seiko Epson Corporation, priority 2013, dated 2016)
